According to the supplement of paper PMC11665569:

Legend:
Conditions in all cases: treatment time: 5 days
H1373 [1] = tested on: H1373
Method: (§1)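 CCK-8 viability of KRAS G12C-mutant cancer cell lines transfected with control, YAP/TAZ or TEAD1-4 siRNAs and treated with KRAS G12C inhibitors for 5 days; IC50 fitted in Prism after normalising absorbance at 450 nm to vehicle control.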

H1792 = tested on: H1792
Method: as §1

H2030 = tested on: H2030
Method: as §1

H358 [2] = tested on: H358
Method: as §1

KYSE410 = tested on: KYSE410
Method: as §1

MIAPACA2 [3] = tested on: MIAPACA2
Method: as §1

SW1573 = tested on: SW1573
Method: as §1

MIAPACA2 [4] = assay: relative viability (fraction of vehicle control); higher = more viable / less inhibited
Method: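 CCK-8 viability of MIAPACA2 cells with empty vector or constitutively active YAP S127A, treated with KRAS G12C inhibitors for 5 days, normalised to vehicle control.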

H1373 [5] = assay: as above
Method: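 CCK-8 viability of H1373 cells with empty vector or constitutively active YAP S127A, treated with KRAS G12C inhibitors for 5 days, normalised to vehicle control.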

H358 [6] = assay: as above
Method: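 CCK-8 viability of H358 cells with empty vector or constitutively active YAP S127A, treated with KRAS G12C inhibitors for 5 days. Absorbance at 450 nm normalised to vehicle control.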

C=CC(=O)N1CCN(c2ncnc3c(F)c(-c4c(O)cccc4F)c(Cl)cc23)CC1 [ARS1620]
Conditions	IC50 (cell viability, 5 days) [nM]	relative viability
H358 [2], siRNA knockdown (Con = control): Con	400	–
H358 [2], siRNA knockdown (Con = control): TEAD1234_si1	366	–
H358 [2], siRNA knockdown (Con = control): TEAD1234_si2	228	–
H358 [2], siRNA knockdown (Con = control): YAP_WWTR1_si1	183	–
H358 [2], siRNA knockdown (Con = control): YAP_WWTR1_si2	135	–
H358 [6], log10 concentration (uM): 0, ectopic expression: YAP S127A	–	0.842
H358 [6], log10 concentration (uM): 0, ectopic expression: empty vector (YAP experiment)	–	0.6
H358 [6], log10 concentration (uM): 0.39794, ectopic expression: YAP S127A	–	0.833
H358 [6], log10 concentration (uM): 0.39794, ectopic expression: empty vector (YAP experiment)	–	0.389
H358 [6], log10 concentration (uM): 0.69897, ectopic expression: YAP S127A	–	0.617
H358 [6], log10 concentration (uM): 0.69897, ectopic expression: empty vector (YAP experiment)	–	0.306
H358 [6], log10 concentration (uM): 1, ectopic expression: YAP S127A	–	0.558
H358 [6], log10 concentration (uM): 1, ectopic expression: empty vector (YAP experiment)	–	0.217
H358 [6], log10 concentration (uM): 1.301029996, ectopic expression: YAP S127A	–	0.383
H358 [6], log10 concentration (uM): 1.301029996, ectopic expression: empty vector (YAP experiment)	–	0.128
H358 [6], log10 concentration (uM): -0.30103, ectopic expression: YAP S127A	–	0.942
H358 [6], log10 concentration (uM): -0.30103, ectopic expression: empty vector (YAP experiment)	–	0.711
H358 [6], log10 concentration (uM): -0.60206, ectopic expression: YAP S127A	–	0.958
H358 [6], log10 concentration (uM): -0.60206, ectopic expression: empty vector (YAP experiment)	–	0.806
H358 [6], log10 concentration (uM): -1, ectopic expression: YAP S127A	–	0.808
H358 [6], log10 concentration (uM): -1, ectopic expression: empty vector (YAP experiment)	–	0.883
H358 [6], log10 concentration (uM): -2, ectopic expression: YAP S127A	–	0.792
H358 [6], log10 concentration (uM): -2, ectopic expression: empty vector (YAP experiment)	–	0.75
H1373 [1], siRNA knockdown (Con = control): Con	1950	–
H1373 [1], siRNA knockdown (Con = control): YAP_WWTR1_si1	580	–
H1373 [1], siRNA knockdown (Con = control): YAP_WWTR1_si2	305	–
H1373 [5], log10 concentration (uM): 0, ectopic expression: YAP S127A	–	0.7325
H1373 [5], log10 concentration (uM): 0, ectopic expression: empty vector (YAP experiment)	–	0.658
H1373 [5], log10 concentration (uM): 0.39794, ectopic expression: YAP S127A	–	0.627
H1373 [5], log10 concentration (uM): 0.39794, ectopic expression: empty vector (YAP experiment)	–	0.504
H1373 [5], log10 concentration (uM): 0.69897, ectopic expression: YAP S127A	–	0.564
H1373 [5], log10 concentration (uM): 0.69897, ectopic expression: empty vector (YAP experiment)	–	0.413
H1373 [5], log10 concentration (uM): 1, ectopic expression: YAP S127A	–	0.545
H1373 [5], log10 concentration (uM): 1, ectopic expression: empty vector (YAP experiment)	–	0.329
H1373 [5], log10 concentration (uM): 1.301029996, ectopic expression: YAP S127A	–	0.413
H1373 [5], log10 concentration (uM): 1.301029996, ectopic expression: empty vector (YAP experiment)	–	0.26
H1373 [5], log10 concentration (uM): -0.30103, ectopic expression: YAP S127A	–	0.811
H1373 [5], log10 concentration (uM): -0.30103, ectopic expression: empty vector (YAP experiment)	–	0.862
H1373 [5], log10 concentration (uM): -0.60206, ectopic expression: YAP S127A	–	0.866
H1373 [5], log10 concentration (uM): -0.60206, ectopic expression: empty vector (YAP experiment)	–	0.847
H1373 [5], log10 concentration (uM): -1, ectopic expression: YAP S127A	–	0.933
H1373 [5], log10 concentration (uM): -1, ectopic expression: empty vector (YAP experiment)	–	0.917
H1373 [5], log10 concentration (uM): -2, ectopic expression: YAP S127A	–	1
H1373 [5], log10 concentration (uM): -2, ectopic expression: empty vector (YAP experiment)	–	0.989
H1792, siRNA knockdown (Con = control): Con	1960	–
H1792, siRNA knockdown (Con = control): YAP_WWTR1_si1	590	–
H1792, siRNA knockdown (Con = control): YAP_WWTR1_si2	472	–
H2030, siRNA knockdown (Con = control): Con	9870	–
H2030, siRNA knockdown (Con = control): TEAD1234_si1	1050	–
H2030, siRNA knockdown (Con = control): TEAD1234_si2	237	–
KYSE410, siRNA knockdown (Con = control): Con	4240	–
KYSE410, siRNA knockdown (Con = control): TEAD1234_si1	1050	–
KYSE410, siRNA knockdown (Con = control): TEAD1234_si2	1070	–
KYSE410, siRNA knockdown (Con = control): YAP_WWTR1_si1	1680	–
KYSE410, siRNA knockdown (Con = control): YAP_WWTR1_si2	1190	–
MIAPACA2 [3], siRNA knockdown (Con = control): Con	10400	–
MIAPACA2 [3], siRNA knockdown (Con = control): TEAD1234_si1	5670	–
MIAPACA2 [3], siRNA knockdown (Con = control): TEAD1234_si2	5420	–
MIAPACA2 [3], siRNA knockdown (Con = control): YAP_WWTR1_si1	4420	–
MIAPACA2 [3], siRNA knockdown (Con = control): YAP_WWTR1_si2	6970	–
MIAPACA2 [4], log10 concentration (uM): 0, ectopic expression: YAP S127A	–	1.05
MIAPACA2 [4], log10 concentration (uM): 0, ectopic expression: empty vector (YAP experiment)	–	1.01
MIAPACA2 [4], log10 concentration (uM): 0.39794, ectopic expression: YAP S127A	–	0.984
MIAPACA2 [4], log10 concentration (uM): 0.39794, ectopic expression: empty vector (YAP experiment)	–	0.743
MIAPACA2 [4], log10 concentration (uM): 0.69897, ectopic expression: YAP S127A	–	0.977
MIAPACA2 [4], log10 concentration (uM): 0.69897, ectopic expression: empty vector (YAP experiment)	–	0.542
MIAPACA2 [4], log10 concentration (uM): 1, ectopic expression: YAP S127A	–	0.913
MIAPACA2 [4], log10 concentration (uM): 1, ectopic expression: empty vector (YAP experiment)	–	0.25
MIAPACA2 [4], log10 concentration (uM): 1.301029996, ectopic expression: YAP S127A	–	0.315
MIAPACA2 [4], log10 concentration (uM): 1.301029996, ectopic expression: empty vector (YAP experiment)	–	0.0583
MIAPACA2 [4], log10 concentration (uM): -0.30103, ectopic expression: YAP S127A	–	0.946
MIAPACA2 [4], log10 concentration (uM): -0.30103, ectopic expression: empty vector (YAP experiment)	–	0.996
MIAPACA2 [4], log10 concentration (uM): -0.60206, ectopic expression: YAP S127A	–	0.915
MIAPACA2 [4], log10 concentration (uM): -0.60206, ectopic expression: empty vector (YAP experiment)	–	0.98
MIAPACA2 [4], log10 concentration (uM): -1, ectopic expression: YAP S127A	–	0.969
MIAPACA2 [4], log10 concentration (uM): -1, ectopic expression: empty vector (YAP experiment)	–	1.05
MIAPACA2 [4], log10 concentration (uM): -2, ectopic expression: YAP S127A	–	0.992
MIAPACA2 [4], log10 concentration (uM): -2, ectopic expression: empty vector (YAP experiment)	–	0.994
SW1573, siRNA knockdown (Con = control): Con	13200	–
SW1573, siRNA knockdown (Con = control): TEAD1234_si1	342	–
SW1573, siRNA knockdown (Con = control): TEAD1234_si2	164	–
SW1573, siRNA knockdown (Con = control): YAP_WWTR1_si1	100	–
SW1573, siRNA knockdown (Con = control): YAP_WWTR1_si2	132	–
